Test results: patent publication US20260200947A1, “FUSED CYCLIC COMPOUNDS AND USE THEREOF” (Jacobio Pharmaceuticals Co., Ltd., priority 2022, published 2026)
Like-named read-outs stand apart in the source and are kept apart here.

Key:
GDP-KRAS G12D [1] = molecular target: T1, GDP-KRAS G12D (Homo sapiens, UniProt P01116, G12D); assay: SOS1 catalyzed nucleotide exchange assay, GDP-KRAS G12D; settings: read-out: Biochemical assays, IC50, KRAS G12D GDP, GDP form K-Ras G12D, TR-FRET
GDP-KRAS G12V [2] = molecular target: T2, GDP-KRAS G12V (Homo sapiens, UniProt P01116, G12V); assay: SOS1 catalyzed nucleotide exchange assay, GDP-KRAS G12V; settings: read-out: Biochemical assays, IC50, KRAS G12V GDP, GDP form K-Ras G12V, TR-FRET
GppNp-KRAS G12V [3] = molecular target: T3, GppNp-KRAS G12V (Homo sapiens, UniProt P01116, G12V); assay: biochemical
GDP-KRAS G12V [4] = molecular target: T2, GDP-KRAS G12V; assay: biochemical
[5] = test system: Capan-2 cells (K-Ras G12V)
Procedure: (§1) Each of cells in culture medium was seeded in 96-well plates at density indicated in Table 4 and put in a cell incubator to incubate overnight. The next day, the culture medium was removed and the compound diluted in assay medium was added in each well. […] 10 μL of cell lysates from the 96-well plates were transferred to a 384-well plate (Greiner) containing 2.5 μL/well HTRF® pre-mixed antibodies (Cisbio 64AERPEH). The plate was incubated 4 hours at 25° C. and read HTRF signals on Tecan Spark multimode microplate reader. The data were analyzed using a 4-parameter logistic model to calculate IC50 values.

SW620 cells (K-Ras G12V) [6] = test system: SW620 cells (K-Ras G12V)
Procedure: (§2) Each of cells in culture medium was plated in TC-treated 96-well plates at a density indicated in Table 4 and incubated in a cell incubator overnight. The next day, each of compounds was diluted in culture medium and added to the plates. After 6 days incubation in cell incubator, the cell viability was detected by CellTiter-Glo® Cell Viability Assay kit (Promega).

GppNp-KRAS G12D [7] = molecular target: T4, GppNp-KRAS G12D (Homo sapiens, UniProt P01116, G12D); assay: biochemical
[8] = test system: AsPC-1 cells (K-Ras G12D)
Procedure: as §2

GDP-KRAS G12D [9] = molecular target: T1, GDP-KRAS G12D; assay: biochemical
[10] = Mouse pharmacokinetic study; format: in vivo; settings: Balb/c mouse (female); for Cl_obs / AUC(0-t) / Cmax: plasma; for AUC(0-t): read-out: AUC0-24 h; for F: 10 mg/kg po vs 3 mg/kg iv; for Cmax: read-out: Cmax
Procedure: The purpose of this study was to evaluate the pharmacokinetic properties of compounds in Balb/c mouse (female) following single dose administration. Six mice were needed for each compound and the six mice were divided into two groups (n=3/group), group A and group B. Mice in group A were treated with a single 3 mg/kg dose of compound (iv). Mice in group B were treated with a single 10 mg/kg dose of compound (po). Foreach mouse in group A, blood samples were collected at the time point of 0.083 h 0.5 h, 1 h, 2 h, 4 h, 8 h and 24 h post-dose. For each mouse in group B, blood samples were collected at the time point of 0.25 h, 0.5 h, 1 h, 2 h, 4 h, 8 h and 24 h post-dose. Blood samples were placed on ice until centrifugation to obtain plasma samples. The plasma samples were stored at −80° C. until analysis. The concentration of compound in plasma samples was determined using a LC-MS/MS method.

SW620 cells (K-Ras G12V) [11] = assay: Phospho-ERK1/2(THR202/TYR204) HTRF assay, SW620; format: cell-based; settings: read-out: pERK, IC50, SW620
Procedure: as §1

GppNp-KRAS G12D [12] = molecular target: T4, GppNp-KRAS G12D; assay: GTP-K-Ras and cRAF interaction assay, GppNp-KRAS G12D; settings: read-out: Biochemical assays, IC50, KRAS G12D GppNp; GppNp-loaded K-Ras G12D, cRAF RBD interaction, HTRF
GppNp-KRAS G12V [13] = molecular target: T3, GppNp-KRAS G12V; assay: GTP-K-Ras and cRAF interaction assay, GppNp-KRAS G12V; settings: read-out: Biochemical assays, IC50, KRAS G12V GppNp; GppNp-loaded K-Ras G12V, cRAF RBD interaction, HTRF
[14] = Homo sapiens, SW-620, 2 hours incubation

T4 sequence (P01116 1-169 isoform P01116-2 G12D): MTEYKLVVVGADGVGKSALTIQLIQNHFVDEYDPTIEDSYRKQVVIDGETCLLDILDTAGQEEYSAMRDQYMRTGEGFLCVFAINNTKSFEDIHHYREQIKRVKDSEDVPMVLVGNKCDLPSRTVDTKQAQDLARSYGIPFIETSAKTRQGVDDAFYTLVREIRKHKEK
T1 sequence (P01116 1-169 isoform P01116-2 G12D): as above
T3 sequence (P01116 1-169 isoform P01116-2 G12V): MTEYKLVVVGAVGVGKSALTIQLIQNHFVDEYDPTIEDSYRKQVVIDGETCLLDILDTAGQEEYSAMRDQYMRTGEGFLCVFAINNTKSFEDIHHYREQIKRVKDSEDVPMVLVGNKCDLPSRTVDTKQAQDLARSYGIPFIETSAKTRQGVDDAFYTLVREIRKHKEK
T2 sequence (P01116 1-169 isoform P01116-2 G12V): as above

SMILES	IC50 (GDP-KRAS G12D [1])	IC50 (GDP-KRAS G12V [2])	IC50 (GppNp-KRAS G12V [3])	IC50 (GDP-KRAS G12V [4])	IC50 [5]	IC50 (SW620 cells (K-Ras G12V) [6])	IC50 (GppNp-KRAS G12D [7])	IC50 [8]	IC50 (GDP-KRAS G12D [9])	IC50 (SW620 cells (K-Ras G12V) [11]; [14])	other results
N#Cc1c(N)sc2c(F)ccc(-c3c(Cl)c4c5c(nc(OCC67CCCN6CC(F)C7)nc5c3F)N3CCCOCC3CO4)c12 (single isomer, unassigned) [Compound 66A]	169 nM	331 nM									
N#Cc1c(N)sc2c(F)ccc(-c3c(F)c4c5c(nc(OC[C@@]67CCCN6C[C@H](F)C7)nc5c3F)N3CCCOC[C@H]3CO4)c12 (single isomer, unassigned) [Compound 163B]			18.3 nM	1.04 nM	6.2 nM	2.15 nM	8.04 nM	14 nM	0.879 nM		Cl_obs ([10]; 3 mg/kg, iv): 1.86 mL/min/kg; AUC(0-t) ([10]; 3 mg/kg, iv): 27300 ng·h/mL; F [10]: 25.3%; AUC(0-t) ([10]; 10 mg/kg, po): 23000 ng·h/mL; Cmax ([10]; 10 mg/kg, po): 5310 ng/mL
C#Cc1c(F)ccc2cc(N)cc(-c3nc4c5c(nc(OC[C@@]67CCCN6C[C@H](F)C7)nc5c3F)N3CCCOC[C@H]3CO4)c12 [Compound 1]					6.25 nM	9.37 nM		102 nM		4.43 nM	Cl_obs ([10]; 3 mg/kg, iv): 6.33 mL/min/kg; AUC(0-t) ([10]; 3 mg/kg, iv): 7990 ng·h/mL; F [10]: 17.2%; AUC(0-t) ([10]; 10 mg/kg, po): 4590 ng·h/mL; Cmax ([10]; 10 mg/kg, po): 1140 ng/mL
CCc1c(F)ccc2cc(N)cc(-c3nc4c5c(nc(OC[C@@]67CCCN6C[C@H](F)C7)nc5c3F)N3CCCOC[C@H]3CO4)c12 [Compound 6A]	1.24 nM	3.37 nM				26.4 nM		175 nM			IC50 (GppNp-KRAS G12D [12]): 497 nM; IC50 (SW620 cells (K-Ras G12V) [11]; 2 hours incubation): 12.5 nM
C=Cc1c(F)ccc2cc(N)cc(-c3nc4c5c(nc(OC[C@@]67CCCN6C[C@H](F)C7)nc5c3F)N3CCCOC[C@H]3CO4)c12 [Compound 6B]	3.83 nM	3.82 nM				28.3 nM		266 nM			IC50 (GppNp-KRAS G12D [12]): 808 nM; IC50 (SW620 cells (K-Ras G12V) [11]; 2 hours incubation): 16.2 nM
C#Cc1c(F)ccc2cc(N)cc(-c3nc4c5c(nc(OC[C@@]67CCCN6C[C@H](F)C7)nc5c3F)N3CCCOC[C@H]3[C@H](C)O4)c12 [Compound 18A]	5.42 nM	4.72 nM				62 nM		391 nM			IC50 (SW620 cells (K-Ras G12V) [11]; 2 hours incubation): 59.4 nM
C#Cc1c(F)ccc2cc(N)cc(-c3nc4c5c(nc(OC[C@@]67CCCN6C[C@H](F)C7)nc5c3F)N3CCCCC[C@@H]3CO4)c12 [Compound 27A]	47.8 nM	65.1 nM									IC50 (GppNp-KRAS G12D [12]): > 1000 nM; IC50 (GppNp-KRAS G12V [13]): > 1000 nM
C#Cc1c(F)ccc2cc(N)cc(-c3nc4c5c(nc(OC[C@@]67CCCN6C[C@H](F)C7)nc5c3F)N3[C@@H](C)CCOC[C@H]3N4C)c12 [Compound 36]			30.4 nM	0.189 nM	0.352 nM	1.2 nM	19.7 nM	16.9 nM	0.339 nM	1.01 nM	
C#Cc1c(F)ccc2cc(N)cc(-c3nc4c5c(nc(OC[C@@]67CCCN6C[C@H](F)C7)nc5c3F)N3CCCC[C@H](F)[C@H]3N4C)c12 [Compound 40A]			36.4 nM	0.912 nM	0.843 nM	2.71 nM	9.42 nM	2.54 nM	0.875 nM	0.328 nM	
C#Cc1c(F)ccc2cc(N)cc(-c3nc4c5c(nc(OCC67CCCN6CC(F)C7)nc5c3F)N3CCCCC(F)C3N4C)c12 (stereo not shown) [Compound 40B]	1.55 nM	7.01 nM									IC50 (GppNp-KRAS G12D [12]): 162 nM; IC50 (GppNp-KRAS G12V [13]): 705 nM
C#Cc1c(F)ccc2cc(N)cc(-c3nc4c5c(nc(OC[C@@]67CCCN6C[C@H](F)C7)nc5c3F)N3[C@@H](C)[C@@H](F)COC[C@H]3N4C)c12 [Compound 57]					0.453 nM	3.22 nM		10 nM			
C#Cc1c(F)ccc2cc(N)cc(-c3nc4c5c(nc(OC[C@@]67CCCN6C[C@H](F)C7)nc5c3F)N3[C@@H](C)[C@H](F)COC[C@H]3N4C)c12 [Compound 58]					0.404 nM	1.2 nM		21.6 nM			
C#Cc1c(F)ccc2cc(N)cc(-c3nc4c5c(nc(OC[C@@]67CCCN6C[C@H](F)C7)nc5c3F)N3[C@@H](COC)CCOC[C@H]3N4C)c12 [Compound 59A]					0.316 nM	13.3 nM		61.8 nM			
C#Cc1c(F)ccc2cc(N)cc(-c3nc4c5c(nc(OC[C@@]67CCCN6C[C@H](F)C7)nc5c3F)N3CCCC[C@@H](Cl)[C@@H]3N4C)c12 [Compound 62A]	703 nM	389 nM									IC50 (GppNp-KRAS G12D [12]): > 1000 nM; IC50 (GppNp-KRAS G12V [13]): > 1000 nM
C#Cc1c(F)ccc2cc(N)cc(-c3nc4c5c(nc(OC[C@@]67CCCN6C[C@H](F)C7)nc5c3F)N3[C@@H](CC)CCOC[C@H]3N4C)c12 [Compound 94]			204 nM	0.576 nM		6.09 nM	224 nM	82.5 nM	1.17 nM	1.71 nM	
C#Cc1c(F)ccc2cc(N)cc(-c3nc4c5c(nc(OC[C@@]67CCCN6C[C@H](F)C7)nc5c3F)N3CCOCCC3N4C)c12 (stereo partly shown) [Compound 114]			747 nM	2.08 nM		45.8 nM	295 nM	586 nM	3.73 nM	28.3 nM	
C[C@H]1CCOC[C@H]2N(C)c3nc(-c4cc(O)cc5ccc(F)c(Cl)c45)c(F)c4nc(OC[C@@]56CCCN5C[C@H](F)C6)nc(c34)N12 [Compound 119]			233 nM	0.815 nM		14.7 nM	71.1 nM	52.1 nM	1.53 nM	13 nM	
CCc1c(F)ccc2cc(N)cc(-c3nc4c5c(nc(OC[C@@]67CCCN6C[C@H](F)C7)nc5c3F)N3[C@@H](C)CCOC[C@H]3N4C)c12 [Compound 127]			> 1000 nM	2.13 nM		62.6 nM	299 nM	173 nM	3.87 nM	21.9 nM	
C#Cc1c(F)ccc2cc(N)cc(-c3nc4c5c(nc(OC[C@@]67CCCN6C[C@H](F)C7)nc5c3F)N3[C@H]5C[C@H]5COC[C@H]3N4C)c12 [Compound 159B]					5.4 nM			307 nM			
C#Cc1c(F)ccc2cc(N)cc(-c3nc4c5c(nc(OC[C@]67CC(=C)CN6C[C@@H](F)C7)nc5c3F)N3CCCOC[C@H]3N4C)c12 [Compound 171]					2.54 nM	43.7 nM					
